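Protocol summary: plate cells (96-well), add compound at 5 concentrations, incubate 48 h, interpolate endpoints linearly. GI50: concentration for 50% inhibition of growth.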 The source made the active and inactive calls. No stated cut-off is given here; in the data, active = GI50 up to about 1.1 µM and inactive = higher.
Experiments:
Experiment in all cases: DTP human tumour cell line panel, 48 h
[1] = tested on: CCRF-CEM
[2] = tested on: UACC-257
[3] = tested on: BT-549
[4] = tested on: SR
[5] = tested on: PC-3
[6] = tested on: LXFL 529
[7] = tested on: Hs-578T
[8] = tested on: M19-MEL
[9] = tested on: SF-268
[10] = tested on: MDA-MB-231
[11] = tested on: OVCAR-3
[12] = tested on: EKVX
[13] = tested on: KM12
[14] = tested on: SK-MEL-2
[15] = tested on: DMS-114
[16] = tested on: DMS-273
[17] = tested on: TK-10
[18] = tested on: A549
[19] = tested on: HOP-62
[20] = tested on: HL-60
[21] = tested on: OVCAR-5
[22] = tested on: SF-539
[23] = tested on: RPMI-8226
[24] = tested on: UO-31
[25] = tested on: NCI-H460
[26] = tested on: LOX IMVI
[27] = tested on: HOP-18
[28] = tested on: HT-29
[29] = tested on: T47D
[30] = tested on: SW-620
[31] = tested on: SK-OV-3
[32] = tested on: RXF 393
[33] = tested on: DU-145
[34] = tested on: NCI-H226
[35] = tested on: K562
[36] = tested on: MDA-MB-435
[37] = tested on: SN12C
[38] = tested on: U-251
[39] = tested on: HCC 2998
[40] = tested on: M14
[41] = tested on: KM-20L2
[42] = tested on: MCF7
[43] = tested on: HCT-15
[44] = tested on: COLO 205
[45] = tested on: HOP-92
[46] = tested on: A498
[47] = tested on: SK-MEL-5
[48] = tested on: SK-MEL-28
[49] = tested on: SF-295
[50] = tested on: SNB-19
[51] = tested on: ACHN
[52] = tested on: IGROV-1
[53] = tested on: UACC-62
[54] = tested on: 786-0
[55] = tested on: NCI-H23
[56] = tested on: OVCAR-4
[57] = tested on: MOLT-4
[58] = tested on: SNB-75
[59] = tested on: CAKI-1
[60] = tested on: HCT-116
[61] = tested on: OVCAR-8
[62] = tested on: SNB-78
[63] = tested on: NCI-H522
[64] = tested on: Malme-3M
[65] = tested on: DLD-1
[66] = tested on: NCI/ADR-RES
[67] = tested on: MDA-N
[68] = tested on: XF498

Measured: GI50

Cc1cc(O)nc(NN2C(Cl)C(=O)C2c2ccc(O)cc2)n1 (configuration not stated)
inactive: [1] 2.81 µM | [2] 13.1 µM | [3] 9.1 µM | [4] 3.08 µM | [5] 13.2 µM | [6] 10.3 µM | [7] 14.5 µM | [8] 10.5 µM | [9] 8.45 µM | [10] 14 µM | [11] 6.28 µM | [12] 13.6 µM | [13] 8.63 µM | [14] 12.6 µM | [15] 7.35 µM | [16] 5.32 µM | [17] 14.9 µM | [18] 13.6 µM | [19] 6.17 µM | [20] 2.79 µM | [21] 17.8 µM | [22] 8.93 µM | [23] 2.22 µM | [24] 10.5 µM | [25] 4.8 µM | [26] 2.69 µM | [27] 14.6 µM | [28] 6.65 µM | [29] 12.7 µM | [30] 5.21 µM | [31] 11.3 µM | [32] 4.26 µM | [33] 10.9 µM | [34] 10.5 µM | [35] 2.37 µM | [36] 8.47 µM | [37] 11.2 µM | [38] 5.4 µM | [39] 11.2 µM | [40] 11.4 µM | [41] 18.7 µM | [42] 4.03 µM | [44] 18.7 µM | [45] 14.9 µM | [46] 9.75 µM | [47] 8.49 µM | [48] 11.1 µM | [49] 9.48 µM | [50] 11 µM | [51] 8.07 µM | [52] 7.71 µM | [53] 5.04 µM | [54] 5.14 µM | [55] 9.62 µM | [56] 6.95 µM | [57] 5.33 µM | [58] 1.87 µM | [59] 7.13 µM | [60] 4.81 µM | [61] 12.6 µM | [62] 5.87 µM | [63] 15 µM | [64] 14.4 µM
4.31 µM: [43]

C#C[C@]1(O)CCCC2=CC(=O)CC[C@@]21C
inactive: [1] > 100 µM | [2] > 100 µM | [4] > 100 µM | [6] > 100 µM | [8] > 100 µM | [9] > 100 µM | [11] > 100 µM | [12] > 100 µM | [13] > 100 µM | [14] > 100 µM | [15] > 100 µM | [16] > 100 µM | [17] > 100 µM | [18] > 100 µM | [20] > 100 µM | [21] > 100 µM | [22] > 100 µM | [23] > 100 µM | [24] > 100 µM | [25] > 100 µM | [27] > 100 µM | [28] > 100 µM | [30] > 100 µM | [31] > 100 µM | [32] > 100 µM | [34] > 100 µM | [35] > 100 µM | [37] > 100 µM | [38] > 100 µM | [39] > 100 µM | [40] > 100 µM | [41] > 100 µM | [44] > 100 µM | [45] > 100 µM | [47] > 100 µM | [48] > 100 µM | [49] > 100 µM | [50] > 100 µM | [51] > 100 µM | [65] > 100 µM | [52] > 100 µM | [54] > 100 µM | [55] > 100 µM | [57] > 100 µM | [61] > 100 µM | [63] > 100 µM | [64] > 100 µM
> 100 µM: [43]

C=CC(Br)(CBr)CCC(Br)C(C)(C)Br (configuration not stated)
inactive: [2] 13.9 µM | [4] 3.81 µM | [6] 14.5 µM | [8] 14.3 µM | [9] 17.1 µM | [13] 9.14 µM | [14] 13.6 µM | [15] 11.6 µM | [16] 10.7 µM | [17] 16.4 µM | [18] 14.6 µM | [19] 21 µM | [21] 18.5 µM | [22] 15.9 µM | [23] 2.79 µM | [24] 15.2 µM | [25] 10.4 µM | [26] 12.4 µM | [27] 15.5 µM | [28] 13.2 µM | [30] 13.7 µM | [31] 19.4 µM | [32] 14.7 µM | [34] 18.1 µM | [35] 17.3 µM | [37] 15.6 µM | [38] 14.2 µM | [40] 15 µM | [44] 15 µM | [45] 15.7 µM | [47] 14.5 µM | [48] 15.9 µM | [49] 4.42 µM | [51] 12.7 µM | [65] 17.2 µM | [52] 15.2 µM | [53] 12 µM | [54] 12.9 µM | [55] 15.7 µM | [56] 17.1 µM | [57] 9.51 µM | [58] 10.3 µM | [59] 22.8 µM | [60] 14.5 µM | [61] 15.7 µM | [62] 5.56 µM | [63] 15.8 µM | [64] 16.6 µM
16.5 µM: [43]

CC[C@]12C=CCN3CCC4(c5cc([C@@]6(C(=O)OC)CC7CN(CCc8c6[nH]c6ccccc86)C[C@@H]6CCCC[C@H]76)c(OC)cc5N(C)C4[C@](O)(C(=O)OC)C1OC(C)=O)[C@@H]32 (some centres not stated)
< 0.01 µM: [43]
active: [1] < 0.01 µM | [66] 0.0148 µM | [67] < 0.01 µM | [4] < 0.01 µM | [5] < 0.01 µM | [6] < 0.01 µM | [7] < 0.01 µM | [8] < 0.01 µM | [9] < 0.01 µM | [10] < 0.01 µM | [11] < 0.01 µM | [13] < 0.01 µM | [14] < 0.01 µM | [15] < 0.01 µM | [16] < 0.01 µM | [17] < 0.01 µM | [18] < 0.01 µM | [19] < 0.01 µM | [20] < 0.01 µM | [22] < 0.01 µM | [23] < 0.01 µM | [24] < 0.0299 µM | [25] < 0.01 µM | [26] < 0.01 µM | [28] < 0.01 µM | [30] < 0.01 µM | [31] < 0.01 µM | [32] < 0.01 µM | [33] < 0.01 µM | [34] < 0.01 µM | [36] < 0.01 µM | [37] < 0.01 µM | [38] < 0.01 µM | [39] < 0.01 µM | [40] < 0.01 µM | [41] < 0.01 µM | [42] < 0.01 µM | [44] < 0.01 µM | [45] 0.0259 µM | [46] < 0.01 µM | [47] < 0.01 µM | [49] < 0.01 µM | [50] < 0.01 µM | [51] < 0.01 µM | [65] < 0.01 µM | [52] < 0.01 µM | [53] < 0.01 µM | [54] < 0.01 µM | [55] < 0.01 µM | [57] < 0.01 µM | [60] < 0.01 µM | [61] < 0.01 µM | [62] < 0.01 µM | [63] < 0.01 µM | [64] < 0.01 µM | [68] < 0.01 µM
inactive: [3] 1.32 µM | [29] 18.2 µM | [48] 2.11 µM | [56] 5.2 µM

Cc1ccc(NC(=O)c2cccc([N+](=O)[O-])c2O)c(C)c1
active: [27] 1.02 µM
inactive: [1] 17.9 µM | [2] 14 µM | [4] 22.3 µM | [6] 14.7 µM | [8] 24.4 µM | [9] 34.8 µM | [11] 5.7 µM | [12] 17.1 µM | [13] 27.7 µM | [14] 7.73 µM | [15] 20.1 µM | [18] 15.9 µM | [19] 33.3 µM | [20] 17.2 µM | [21] 20.5 µM | [22] 14.5 µM | [23] 11.6 µM | [24] 3.31 µM | [25] 26.4 µM | [26] 11.9 µM | [28] 29.4 µM | [30] 28.4 µM | [31] 22.9 µM | [34] 17.1 µM | [35] 21 µM | [37] 15.8 µM | [38] 24 µM | [39] 40.4 µM | [40] 36.6 µM | [41] 21.5 µM | [44] 23.9 µM | [46] 12.9 µM | [48] 6.97 µM | [49] 20.1 µM | [50] 24.2 µM | [51] 16.8 µM | [65] 14.3 µM | [52] 9.84 µM | [53] 4.03 µM | [55] 23 µM | [56] 11.6 µM | [57] 19.3 µM | [58] 23.5 µM | [59] 6.97 µM | [60] 28.6 µM | [61] 22.9 µM | [62] 26.9 µM | [63] 7.06 µM | [64] 1.7 µM
